# Laboratory results: US8309563B2, “Quinazoline derivatives useful as anti-tumor medicament” (Shanghai Allist Pharmaceuticals, Inc., priority 2006, dated 2012)
# Where two headings read alike, the source gives them in different places.
# What was measured:
# [1] = test system: A431 cells (human epidermoid squamous carcinoma cell); experiment: Anti-tumor experiment, improved MTT method, A431 cells, 72 h; assay type: cell-based
# Protocol: The inventive compounds were formulated into 5 concentrations. […] The incubation was continued for another 6 h, and 100 μl SDS was added to end the reaction.
# 1. Cell Line: A431 Human Epidermoid Squamous Carcinoma Cell
# [2] = test system: BT-474: Human Breast Cancer Cell; experiment: Inhibition of cell proliferation, SRB method, BT-474 cells, 5 days; assay type: cell-based; conditions: 120 h, Logit method, read-out: BT474 IC50
# Protocol: 2. Cell Line: BT-474: Human Breast Cancer Cell The cells were incubated with compounds of various concentrations (10-0.001 μm individually) for 5 days. The inhibition of cell proliferation was tested according to the SRB method, and the inhibitory rate was figure out. According to the inhibitory rate, the IC50 was calculated by the Logit method. The anti-tumor activities in vitro were compared.
# Erb-B2 = target: T1, Erb-B2 (Homo sapiens, UniProt P04626); experiment: Inhibitory effect on the phosphorylation activity of Erb-B2 in BT474 cells (SDS-PAGE/blot, ECL); assay type: cell-based; conditions: BT474 cells treated […]; FIG. 1; comparison with Iressa
# T1 construct: After treated with various compounds for 1.5 h, the cells were collected, cracked; endogenous in cells; host or cells: BT474 human breast cancer cells
# T1 sequence (P04626 23-1255): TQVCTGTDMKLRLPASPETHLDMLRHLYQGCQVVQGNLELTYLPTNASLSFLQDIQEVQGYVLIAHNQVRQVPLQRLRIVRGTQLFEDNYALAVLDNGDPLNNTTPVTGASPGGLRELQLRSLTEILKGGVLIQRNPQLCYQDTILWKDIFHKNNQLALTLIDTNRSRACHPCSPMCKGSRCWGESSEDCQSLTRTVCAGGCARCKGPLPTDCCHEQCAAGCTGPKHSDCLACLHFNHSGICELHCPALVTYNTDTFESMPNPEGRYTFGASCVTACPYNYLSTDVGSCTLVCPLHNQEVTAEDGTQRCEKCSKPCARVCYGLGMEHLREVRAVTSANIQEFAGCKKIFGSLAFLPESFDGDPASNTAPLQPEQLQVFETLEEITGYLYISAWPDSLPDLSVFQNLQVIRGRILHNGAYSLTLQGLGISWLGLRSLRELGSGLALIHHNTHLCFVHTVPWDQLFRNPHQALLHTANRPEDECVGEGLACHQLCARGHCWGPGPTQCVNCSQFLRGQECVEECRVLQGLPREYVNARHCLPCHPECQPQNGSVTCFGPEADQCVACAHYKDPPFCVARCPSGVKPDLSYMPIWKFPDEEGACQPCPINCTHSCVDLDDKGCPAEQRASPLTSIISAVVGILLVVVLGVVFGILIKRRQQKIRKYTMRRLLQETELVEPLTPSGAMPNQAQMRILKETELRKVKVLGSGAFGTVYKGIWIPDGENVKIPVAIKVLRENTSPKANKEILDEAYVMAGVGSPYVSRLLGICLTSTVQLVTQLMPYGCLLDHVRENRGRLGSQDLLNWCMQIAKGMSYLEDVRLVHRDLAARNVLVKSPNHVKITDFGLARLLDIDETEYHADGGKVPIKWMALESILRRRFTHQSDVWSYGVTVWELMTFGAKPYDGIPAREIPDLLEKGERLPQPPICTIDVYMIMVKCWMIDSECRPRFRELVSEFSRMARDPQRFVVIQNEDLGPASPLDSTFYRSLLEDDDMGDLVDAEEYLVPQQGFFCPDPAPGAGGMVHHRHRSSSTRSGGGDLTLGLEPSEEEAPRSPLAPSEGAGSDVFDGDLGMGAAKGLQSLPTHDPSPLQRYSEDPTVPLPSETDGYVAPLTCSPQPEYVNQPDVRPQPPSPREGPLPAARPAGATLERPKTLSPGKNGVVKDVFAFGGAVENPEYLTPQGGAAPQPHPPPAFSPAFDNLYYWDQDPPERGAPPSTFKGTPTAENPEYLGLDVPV
# Protocol: The inhibitory effect of compound 8 and compound 14 on the phosphorylation activity of Erb-B2: The concentration of the human breast cancer cells BT474 were adjusted to a suitable concentration, and inoculated into a plate. After treated with various compounds for 1.5 h, the cells were collected, cracked and the protein was adjusted to the same quantity. Following the protein-denaturation, SDS-PAGE was conducted, and transferred to nitric acid cellulose film; Hybriding with the anti-phosphorylation antibody (mono-anti), anti-β-tublin antibody (mono-anti) and anti-mouse-IgG antibody (bi-anti) respectively; Assayed by the ECL kit and the X-ray plate was exposed. According to the size and the density of the corresponding protein band, the inhibitory effect on Erb-B2 kinases can be evaluated.
# [3] = test system: human skin squamous cancer cell A431 grafted in a nude mouse; experiment: Anti-tumor effect on human skin squamous cancer cell A431 grafted in a nude mouse; assay type: in vivo
# Protocol: A well-growth solid tumor of A431 was selected and incised into several pieces with the size of 2-3 mm; each was grafted into the right armpit of a mouse subcutaneously with a trocar respectively. 5 After 7days, the test compounds were administrated by gastric perfusion through the mouth for 13 days continuously. The long span (a) and the short span (b) of the tumor were measured with a vernier caliper every 4 days. According to the formula V=ab^2/2, the volume (mm^3) of the tumor could be calculated. The test animals were neck-off killed 23 days after the grafting. The test animals were anatomized to obtain the tumor. The tumors were weighed and the inhibitory rate was calculated.
# [4] = Homo sapiens, A-431, 72 h, A431 cells, 72 h, class symbols, read-out: IC50
# [5] = Homo sapiens, A-431, A431 cells, * = two results from two experiments, read-out: A431 IC50
# [6] = A431 cells, * = two results from two experiments, read-out: A431 IC50
compound,measurement,setting,value
"COc1ccc(-c2ccc3ncnc(Nc4ccc(OCc5cccc(F)c5)c(Cl)c4)c3c2)cc1 [Example 23, 4-[3-chloro-4-(3-fluorobenzyloxy)-phenylamino]-6-(4-methoxy-phenyl)-quinazoline]",IC50,[1]; [4],10 to 50 µM
same,IC50,[1]; [5],24 µM
same,IC50,[2],0.17 µM
"COc1cc2ncnc(Nc3ccc(OCc4cccc(F)c4)c(Cl)c3)c2cc1NC(=O)/C=C/CN(C)C [Example 13, N-{4-[3-chloro-4-(3-fluorobenzyloxy)-phenylamino]-7-methoxy-quinazolin-6-}-E-4-(dimethylamino)-but-2-enamide]",IC50,[1]; [4],1 to 10 µM
"COc1cc2ncnc(Nc3ccc(OCc4cccc(F)c4)c(Cl)c3)c2cc1OC [Example 21, 4-[3-chloro-4-(3-fluorobenzyloxy)-phenylamino]-6,7-dimethoxy-quinazoline]",IC50,[1]; [4],1 to 10 µM
same,IC50,[1]; [5],2.21 µM
same,IC50,[2],0.19 µM
COCCOc1ccc2ncnc(Nc3ccc(OCc4cccc(F)c4)c(Cl)c3)c2c1 [Example 19],IC50,[1]; [6],1.7 µM
same,IC50,[1]; [4],1 to 10 µM
same,IC50,[1]; [5],3.29 µM
same,IC50,[2],0.088 µM
"CS(=O)(=O)OCc1ccc(-c2ccc3ncnc(Nc4ccc(OCc5cccc(F)c5)c(Cl)c4)c3c2)o1 [Example 28, 4-[3-chloro-4-(3-fluorobenzyloxy)-phenylamino]-6-(5-methanesulfonyloxymethylene-furan-2-yl)-quinazoline]",IC50,[1]; [4],1 to 10 µM
same,IC50,[1]; [5],2.03 µM
same,IC50,[2],0.049 µM
"OCc1cccc(-c2ccc3ncnc(Nc4ccc(OCc5cccc(F)c5)c(Cl)c4)c3c2)c1 [Example 24, 4-[3-chloro-4-(3-fluorobenzyloxy)-phenylamino]-6-(3-hydroxymethyl-phenyl)-quinazoline]",IC50,[1]; [4],1 to 10 µM
same,IC50,[1]; [5],3.87 µM
same,IC50,[2],0.086 µM
"COCCOCc1cccc(-c2ccc3ncnc(Nc4ccc(OCc5cccc(F)c5)c(Cl)c4)c3c2)c1 [Example 26, 4-[3-chloro-4-(3-fluorobenzyloxy)-phenylamino]-6-[3-(methoxyethoxymethylene)-phenyl]-quinazoline]",IC50,[1]; [4],1 to 10 µM
same,IC50,[1]; [5],4.04 µM
same,IC50,[2],6.63 µM
"COc1cc2ncnc(Nc3ccc(OCc4cccc(F)c4)c(Cl)c3)c2cc1OCCCN1CCOCC1 [Example 30, 4-[3-chloro-4-(3-fluorobenzyloxy)-phenylamino]-6-(3-(4-morpholino)propoxy)-7-methoxy-quinazoline]",IC50,[1]; [4],1 to 10 µM
same,IC50,[1]; [5],9.26 µM
same,IC50,[2],0.24 µM
"Fc1cccc(COc2ccc(Nc3ncnc4ccc(Br)cc34)cc2Cl)c1 [Example 22, 4-[3-chloro-4-(3-fluorobenzyloxy)-phenylamino]-6-bromo-quinazoline]",IC50,[1]; [4],10 to 50 µM
"Fc1cccc(COc2ccc(Nc3ncnc4ccc(OCCCN5CCOCC5)cc34)cc2Cl)c1 [Example 20, 4-[3-chloro-4-(3-fluorobenzyloxy)-phenylamino]-6-[3-(4-morpholino)-propoxy]-quinazoline]",IC50,[1]; [4],< 1 µM
same,IC50,[1]; [5],1.69 µM
same,IC50,[2],0.079 µM
"CC(=O)OCc1cccc(-c2ccc3ncnc(Nc4ccc(OCc5cccc(F)c5)c(Cl)c4)c3c2)c1 [Example 25, 4-[3-chloro-4-(3-fluorobenzyloxy)-phenylamino]-6-(3-acetoxymethyl-phenyl)-quinazoline]",IC50,[1]; [4],< 1 µM
same,IC50,[2],0.062 µM
CN(C)C/C=C/C(=O)Nc1cc2c(Nc3ccc(OCc4cccc(F)c4)c(Cl)c3)ncnc2cc1OCC(F)(F)F [Example 12],IC50,[1]; [4],< 1 µM
"CC(=O)Oc1ccc2ncnc(Nc3ccc(OCc4cccc(F)c4)c(Cl)c3)c2c1 [Example 17, O-{4-[-3-chloro-4-(3-fluorobenzyloxy)-phenylamino]-quinazolin-6-yl}-acetate]",IC50,[1]; [4],< 1 µM
same,IC50,[1]; [5],3.48 µM
same,IC50,[2],0.043 µM
C=CC(=O)Nc1cc2c(Nc3ccc(OCc4cccc(F)c4)c(Cl)c3)ncnc2cc1OC [Example 14],IC50,[1]; [4],1 to 10 µM
same,IC50,[1]; [5],1.72 µM
same,IC50,[2],0.0069 µM
same,inhibitory activity on phosphorylation of Erb-B2 compared with Iressa,Erb-B2,more superior inhibitory activity
"CN(C)C/C=C/C(=O)Nc1cc2c(Nc3ccc(OCc4cccc(F)c4)c(Cl)c3)ncnc2cc1Cl [Example 15, N-{4-[3-chloro-4-(3-fluorobenzyloxy)-phenylamino]-7-chloro-quinazolin-6-yl}-E,4-(dimethylamino)-but-2-enamide]",IC50,[1]; [4],1 to 10 µM
"C=CC(=O)Nc1cc2c(Nc3ccc(OCc4cccc(F)c4)c(Cl)c3)ncnc2cc1Cl [Example 16, N-{4-[3-chloro-4-(3-fluorobenzyloxy)-phenylamino]-7-chloro-quinazolin-6-yl}-acrylamide]",IC50,[1]; [4],1 to 10 µM
"Oc1ccc2ncnc(Nc3ccc(OCc4cccc(F)c4)c(Cl)c3)c2c1 [Example 18, 4-[3-chloro-4-(3-fluorobenzyloxy)-phenylamino]-6-hydroxy-quinazoline]",IC50,[1]; [4],10 to 50 µM
"OCc1ccc(-c2ccc3ncnc(Nc4ccc(OCc5cccc(F)c5)c(Cl)c4)c3c2)o1 [Example 27, 4-[3-chloro-4-(3-fluorobenzyloxy)-phenylamino]-6-(5-hydroxymethyl-furan-2-yl)-quinazoline]",IC50,[1]; [6],1.03 µM
same,IC50,[1]; [4],1 to 10 µM
same,IC50,[1]; [5],1.53 µM
same,IC50,[2],0.023 µM
"CN(C)C/C=C/C(=O)Nc1ccc2ncnc(Nc3ccc(OCc4cccc(F)c4)c(Cl)c3)c2c1 [Example 10, N-{4-[3-chloro-4-(3-fluorobenzyloxy)-phenylamino]-quinazolin-6-yl}-E,4-(dimethylamino)-but-2-enamide]",IC50,[1]; [4],10 to 50 µM
"CN(C)Cc1ccc(-c2ccc3ncnc(Nc4ccc(OCc5cccc(F)c5)c(Cl)c4)c3c2)o1 [Example 29, 4-[3-chloro-4-(3-flurobenzyloxy)-phenylamino]-6-(5-dimethylaminomethyl-furan-2-yl)-quinazoline]",IC50,[1]; [4],1 to 10 µM
"C=CC(=O)Nc1ccc2ncnc(Nc3ccc(OCc4cccc(F)c4)c(Cl)c3)c2c1 [Example 8, N-{4-[3-chloro-4-(3-fluorobenzyloxy)-phenylamino]-quinazolin6-yl}-acrylamide]",inhibition %,"[3]; 25 mg/kg ig × 13, by tumor weight",29.99%
same,Weight of the tumor (g) x ± SD,"[3]; 25 mg/kg ig × 13, day 23 after grafting",0.79 ± 0.20 g
same,Weight of the test animals (g) (tumor-off),"[3]; 25 mg/kg ig × 13, nude mouse A431 graft",21.58 ± 2.18 g
same,inhibition %,"[3]; 50 mg/kg ig × 13, by tumor weight",38.67%
same,Weight of the tumor (g) x ± SD,"[3]; 50 mg/kg ig × 13, day 23 after grafting",0.69 ± 0.17 g
same,Weight of the test animals (g) (tumor-off),"[3]; 50 mg/kg ig × 13, nude mouse A431 graft",22.87 ± 3.96 g
same,inhibition %,"[3]; 100 mg/kg ig × 13, by tumor weight",43.63%
same,Weight of the tumor (g) x ± SD,"[3]; 100 mg/kg ig × 13, day 23 after grafting",0.64 ± 0.23 g
same,Weight of the test animals (g) (tumor-off),"[3]; 100 mg/kg ig × 13, nude mouse A431 graft",22.13 ± 1.83 g
same,IC50,[1]; [6],0.11 µM
same,IC50,[1]; [4],< 1 µM
same,IC50,[1]; [5],0.18 µM
same,IC50,[2],0.001 µM
same,inhibitory activity on phosphorylation of Erb-B2 compared with Iressa,Erb-B2,more superior inhibitory activity
"Cc1ccc(S(=O)(=O)Nc2ccc3ncnc(Nc4ccc(OCc5cccc(F)c5)c(Cl)c4)c3c2)cc1 [Example 9, N-{4-[-3-chloro-4-(3-fluorobenzyloxy)-phenylamino]-quinazolin-6-yl}-p-methylbenzenesulfonamide]",IC50,[1]; [4],1 to 10 µM
same,IC50,[1]; [5],1.22 µM
same,IC50,[2],0.28 µM
